Assay [1] has as its target T1, cloned human H3 receptors (Homo sapiens, UniProt Q9Y5N1).
T1 construct: expressed in transfected cells
The experiment in a line: H3 Receptor Binding (Human). The note with it: cloned human H3 receptors stably expressed in SK-N-MC cells; average of results. The protocol:
H3 Receptor Binding (Human)
Binding of compounds to the cloned human H3 receptors, stably expressed in SK-N-MC cells, was performed as described by Barbier, A. J. et al. (Br. J. Pharmacol. 2004, 143(5), 649-661).

Assay [2] has as its target T2, rat H3 receptor (Rattus norvegicus, UniProt Q9QYN8). The assay can be described thus: H3 Receptor Binding (Rat), rat brain membranes, N-[3H]-α-methylhistamine. The note with it: rat brain without cerebellum membranes; 0.8 nM N-[3H]-α-methylhistamine; average of results. The protocol:
H3 Receptor Binding (Rat)
A rat brain without cerebellum (Zivic Laboratories Inc., Pittsburgh, Pa.) was homogenized in 50 mM Tris-HCl/5 mM EDTA and centrifuged at 1,000 rpm for 5 min. The supernatant was removed and recentrifuged at 15,000 rpm for 30 min. Pellets were rehomogenized in 50 mM Tris/5 mM EDTA (pH 7.4). Membranes were incubated with 0.8 nM N—[^3H]-α-methylhistamine plus/minus test compounds for 60 min at 25° C. and harvested by rapid filtration over GF/C glass fiber filters (pretreated with 0.3% polyethylenimine) followed by four washes with buffer. Nonspecific binding was defined in the presence of 100 μM histamine. Inhibitory concentration (responsible for 50% inhibition of maximal effect, IC50) values were determined by a single site curve-fitting program (GraphPad, San Diego, Calif.) and converted to Ki values based on a N—[^3H]-α-methylhistamine dissociation constant (Kd) of 0.8 nM.

For another assay, the target named is human H3 receptor (Homo sapiens, UniProt Q9Y5N1). The experiment in a line: Cyclic AMP Accumulation, SK-N-MC cells expressing reporter construct and human H3 receptor. The format is cell-based. The note with it: cAMP accumulation, average of results, read-out: Human pA2 (converted). From the text:
(§1) Sublines of SK-N-MC cells were created that expressed a reporter construct and either the human or rat H3 receptor. The pA2 values were obtained as described by Barbier et al. (2004).
(Changes in cAMP serve as a functional read-out for many G protein-coupled receptors.)

In assay [3] the target is T2, rat H3 receptor. The experiment in a line: Cyclic AMP Accumulation, SK-N-MC cells expressing reporter construct and rat H3 receptor. The format is cell-based. Further details: expressed in transfected cells; host or cells: SK-N-MC sublines with reporter construct. The note with it: cAMP accumulation, average of results, read-out: Rat pA2 (converted).
Excerpt: as §1

Counter-ions that a name gives are not always drawn.

Chain of human H3 receptor (Q9Y5N1 whole entry): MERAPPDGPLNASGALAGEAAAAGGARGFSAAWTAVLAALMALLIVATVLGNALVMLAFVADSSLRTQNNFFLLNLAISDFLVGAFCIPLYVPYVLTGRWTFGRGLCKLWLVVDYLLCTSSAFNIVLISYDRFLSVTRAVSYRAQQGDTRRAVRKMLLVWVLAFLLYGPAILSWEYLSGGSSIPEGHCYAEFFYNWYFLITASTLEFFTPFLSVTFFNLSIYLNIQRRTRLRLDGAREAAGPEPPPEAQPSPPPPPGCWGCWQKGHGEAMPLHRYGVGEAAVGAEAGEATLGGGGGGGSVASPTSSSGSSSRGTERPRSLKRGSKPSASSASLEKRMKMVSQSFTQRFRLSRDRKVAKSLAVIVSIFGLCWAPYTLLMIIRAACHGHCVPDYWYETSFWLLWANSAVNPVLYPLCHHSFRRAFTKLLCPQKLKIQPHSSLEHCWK
T1 sequence (Q9Y5N1 whole entry): as above
T2 sequence (Q9QYN8 whole entry): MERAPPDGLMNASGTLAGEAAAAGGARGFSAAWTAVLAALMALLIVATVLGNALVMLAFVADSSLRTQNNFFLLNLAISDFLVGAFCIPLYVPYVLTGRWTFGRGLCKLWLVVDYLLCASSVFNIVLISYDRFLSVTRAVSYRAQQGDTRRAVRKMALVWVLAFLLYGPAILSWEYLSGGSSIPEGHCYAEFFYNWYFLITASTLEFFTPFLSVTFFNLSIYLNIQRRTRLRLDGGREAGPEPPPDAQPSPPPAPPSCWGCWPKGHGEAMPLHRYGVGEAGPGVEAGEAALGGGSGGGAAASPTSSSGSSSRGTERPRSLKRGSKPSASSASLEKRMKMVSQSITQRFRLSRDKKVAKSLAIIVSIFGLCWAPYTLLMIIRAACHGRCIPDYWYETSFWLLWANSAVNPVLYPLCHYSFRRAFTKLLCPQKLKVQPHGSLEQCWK

One may read the Ki as the dissociation constant of the complex between target and ligand, obtained from inhibition or displacement. A high value points to a looser hold on the target. For `O=C(c1ccc(OC2CCCCC2)nc1)N1CCCN(C2CCC2)CC1` [Example 8, (4-Cyclobutyl-[1,4]diazepan-1-yl)-(6-cyclohexyloxy-pyridin-3-yl)-methanone], the Ki in assay [1] was 0.8 nM; at rat H3 receptor [2], 17 nM. Further, the Kb on human H3 receptor is 1.05 nM; on rat H3 receptor [3] it was 9.77 nM.

For the molecule `O=C(c1ccc(OC2CCOC2)nc1)N1CCCN(C2CCC2)CC1` (stereo not drawn) [Example 4, (4-Cyclobutyl-[1,4]diazepan-1-yl)-[6-(tetrahydro-furan-3-yloxy)-pyridin-3-yl]-methanone], the figures for the inhibitory constant (Ki) (in assay [1]; at rat H3 receptor [2]) were 1.3 nM and 58 nM, respectively. Moreover, the Kb was 0.331 nM on human H3 receptor and 14.5 nM on rat H3 receptor [3].

In the case of `CC(C)N1CCCN(C(=O)c2ccc(OCC3(C)COC3)nc2)CC1` [Example 6, (4-Isopropyl-[1,4]diazepan-1-yl)-[6-(3-methyl-oxetan-3-ylmethoxy)-pyridin-3-yl]-methanone hydrochloride salt], in assay [1], the inhibition constant (Ki) came out at 37 nM.

For the molecule `CC(C)N1CCN(C(=O)c2ccc(OC3CCOC3)nc2)CC1` (stereo not drawn) [Example 1, (4-isopropyl-piperazin-1-yl)-[6-(tetrahydro-furan-3-yloxy)-pyridin-3-yl]-methanone hydrochloride salt], the Ki in assay [1] turned out to be 104 nM.

In assay [1], `N#Cc1nc(C(=O)N2CCCN(C3CC3)CC2)ccc1OC1CCCCC1` [Example 12, 3-Cyclohexyloxy-6-(4-cyclopropyl-[1,4]diazepane-1-carbonyl)-pyridine-2-carbonitrile] registered an inhibitory constant (Ki) of 2.2 nM.

In assay [1], `N#Cc1nc(C(=O)N2CCCN(C3CC3)CC2)ccc1OC1CCOC1` (stereo not drawn) [Example 10, 6-(4-Cyclopropyl-[1,4]diazepane-1-carbonyl)-3-(tetrahydro-furan-3-yloxy)-pyridine-2-carbonitrile] showed a Ki of 21 nM.

Turning to `O=C(c1ccc(OC2CCCC2)nc1)N1CCCN(C2CCC2)CC1` [Example 7, (4-Cyclobutyl-[1,4]diazepan-1-yl)-(6-cyclopentyloxy-pyridin-3-yl)-methanone], the inhibition constant (Ki) amounted to 1.1 nM in assay [1] and 44 nM on rat H3 receptor [2]. In addition, the Kb is 0.49 nM on human H3 receptor and 4.79 nM on rat H3 receptor [3].

In turn, `CC(C)N1CCN(C(=O)c2ccc(OCC3(C)COC3)nc2)CC1` [Example 5, (4-isopropyl-piperazin-1-yl)-[6-(3-methyl-oxetan-3-ylmethoxy)-pyridin-3-yl]-methanone hydrochloride salt] displayed an inhibitory constant (Ki) in assay [1] of 5010 nM.

For the molecule `CC(C)N1CCCN(C(=O)c2ccc(OC3CCOC3)nc2)CC1` (stereo not drawn) [Example 2, (4-Isopropyl-[1,4]diazepan-1-yl)-[6-(tetrahydro-furan-3-yloxy)-pyridin-3-yl]-methanone hydrochloride salt], the inhibition constant Ki in assay [1] is 9 nM.

`O=C(c1ccc(OC2CCOCC2)nc1)N1CCCN(C2CCC2)CC1` [Example 9, (4-Cyclobutyl-[1,4]diazepan-1-yl)-[6-(tetrahydro-pyran-4-yloxy)-pyridin-3-yl]-methanone]: the inhibition constant (Ki) in assay [1] was 0.9 nM; on rat H3 receptor [2], 28 nM. The Kb on human H3 receptor is 0.234 nM; on rat H3 receptor [3] it was 4.37 nM.

Consider `N#Cc1nc(C(=O)N2CCCN(C3CC3)CC2)ccc1OC1CCCC1` [Example 11, 3-Cyclopentyloxy-6-(4-cyclopropyl-[1,4]diazepane-1-carbonyl)-pyridine-2-carbonitrile], for which the affinity in assay [1] corresponds to a Ki of 6 nM.

Consider `O=C(c1ccc(OC2CCOC2)nc1)N1CCCN(C2CC2)CC1` (stereo not drawn) [Example 3, (4-Cyclopropyl-[1,4]diazepan-1-yl)-[6-(tetrahydro-furan-3-yloxy)-pyridin-3-yl]-methanone], for which the inhibitory constant (Ki) in assay [1] is 6.8 nM.

The values are drawn from US8883776B2, “Cycloalkyloxy- and heterocycloalkyloxypyridine compounds as modulators of the histamine H3 receptor” (Janssen Pharmaceutica N.V., priority 2007, dated 2014).
